In PubChem BioAssay AID248 (DTP/NCI, 2004):
Several values for one entry are separate records, joined by “and”; a condition that tells them apart may be missing. Equal entries are not always repeated. Toxic doses and inconclusive results are not listed.

Tested on: L1210 leukemia ip in BDF1 mice, survival T/C
Test: NCI In Vivo Anticancer Drug Screen. Data for tumor model L1210 Leukemia (intraperitoneal) in B6D2F1 (BDF1) mice
Conditions: higher = longer survival
Outline: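 Tumor cells were implanted, animals were treated, and survival was followed. The result divides the treated measurement by the vehicle-control measurement.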

## Cc1nc2nc(N)nc(N)c2nc1CN(C)c1ccc(C(=O)NC(CCC(=O)O)C(=O)O)cc1 (centres undefined)
endpoint: median survival time, dose: 0.39 mg/kg/injection, schedule: Q01DX009 (ip), vehicle: other
  T/C: 100 % of control
endpoint: median survival time, dose: 0.65 mg/kg/injection, schedule: Q01DX009 (ip), vehicle: other
  T/C: 100 % of control
endpoint: median survival time, dose: 1.08 mg/kg/injection, schedule: Q01DX009 (ip), vehicle: other
  T/C: 100 % of control
endpoint: median survival time, dose: 1.8 mg/kg/injection, schedule: Q01DX009 (ip), vehicle: other
  T/C: 100 % of control and 90 % of control
endpoint: median survival time, dose: 5.0 mg/kg/injection, schedule: Q01DX009 (ip), vehicle: other
  T/C: 90 % of control
endpoint: median survival time, dose: 14.0 mg/kg/injection, schedule: Q01DX009 (ip), vehicle: other
  T/C: 100 % of control
endpoint: median survival time, dose: 39.0 mg/kg/injection, schedule: Q01DX009 (ip), vehicle: other
  T/C: 100 % of control
endpoint: median survival time, dose: 108.0 mg/kg/injection, schedule: Q01DX009 (ip), vehicle: other
  T/C: 100 % of control
endpoint: median survival time, dose: 180.0 mg/kg/injection, schedule: Q01DX009 (ip), vehicle: other
  T/C: 110 % of control
endpoint: median survival time, dose: 300.0 mg/kg/injection, schedule: Q01DX009 (ip), vehicle: other
  T/C: 100 % of control

## NC(CSC(c1ccccc1)(c1ccccc1)c1ccc(CBr)cc1)C(=O)O (centres undefined)
endpoint: mean survival time, dose: 50.0 mg/kg/injection, schedule: Q01DX009 (ip), vehicle: other
  T/C: 105 % of control
endpoint: mean survival time, dose: 100.0 mg/kg/injection, schedule: Q01DX009 (ip), vehicle: other
  T/C: 115 % of control
endpoint: mean survival time, dose: 200.0 mg/kg/injection, schedule: Q01DX009 (ip), vehicle: other
  T/C: 121 % of control

## OC1CSCCc2ccccc21 (centres undefined)
endpoint: mean survival time, dose: 100.0 mg/kg/injection, schedule: Q01DX001 (ip), vehicle: other
  T/C: 100 % of control
endpoint: mean survival time, dose: 200.0 mg/kg/injection, schedule: Q01DX001 (ip), vehicle: other
  T/C: 98 % of control
endpoint: mean survival time, dose: 400.0 mg/kg/injection, schedule: Q01DX001 (ip), vehicle: other
  T/C: 114 % of control

## O=C1CCC2(CCC(=O)c3ccccc32)C(=O)N1 (centres undefined)
endpoint: mean survival time, dose: 50.0 mg/kg/injection, schedule: Q01DX009 (ip), vehicle: Klucel (hydroxypropylcellulose) (HPC)
  T/C: 104 % of control
endpoint: mean survival time, dose: 100.0 mg/kg/injection, schedule: Q01DX009 (ip), vehicle: Klucel (hydroxypropylcellulose) (HPC)
  T/C: 104 % of control
endpoint: mean survival time, dose: 100.0 mg/kg/injection, schedule: Q04DX003 (ip), vehicle: Klucel (hydroxypropylcellulose) (HPC)
  T/C: 93 % of control
endpoint: mean survival time, dose: 200.0 mg/kg/injection, schedule: Q01DX009 (ip), vehicle: Klucel (hydroxypropylcellulose) (HPC)
  T/C: 104 % of control
endpoint: mean survival time, dose: 200.0 mg/kg/injection, schedule: Q04DX003 (ip), vehicle: Klucel (hydroxypropylcellulose) (HPC)
  T/C: 93 % of control
endpoint: mean survival time, dose: 400.0 mg/kg/injection, schedule: Q01DX009 (ip), vehicle: Klucel (hydroxypropylcellulose) (HPC)
  T/C: 108 % of control
endpoint: mean survival time, dose: 400.0 mg/kg/injection, schedule: Q04DX003 (ip), vehicle: Klucel (hydroxypropylcellulose) (HPC)
  T/C: 100 % of control

## COC(=N)c1ccc(O)cc1
endpoint: mean survival time, dose: 100.0 mg/kg/injection, schedule: Q04DX002 (ip), vehicle: saline with Tween-80
  T/C: 94 % of control
endpoint: mean survival time, dose: 200.0 mg/kg/injection, schedule: Q04DX002 (ip), vehicle: saline with Tween-80
  T/C: 98 % of control

## Cc1ccc(C(=O)CCCCl)cc1C
endpoint: mean survival time, dose: 100.0 mg/kg/injection, schedule: Q04DX003 (ip), vehicle: saline with Tween-80
  T/C: 95 % of control
endpoint: mean survival time, dose: 200.0 mg/kg/injection, schedule: Q04DX003 (ip), vehicle: saline with Tween-80
  T/C: 89 % of control
endpoint: mean survival time, dose: 400.0 mg/kg/injection, schedule: Q04DX003 (ip), vehicle: saline with Tween-80
  T/C: 88 % of control

## CCOC(=O)N(OCc1ccccc1)P(=O)(N1CC1(C)C)N1CC1(C)C (centres undefined)
endpoint: mean survival time, dose: 100.0 mg/kg/injection, schedule: Q04DX002 (ip), vehicle: saline
  T/C: 158 % of control
endpoint: mean survival time, dose: 200.0 mg/kg/injection, schedule: Q04DX002 (ip), vehicle: saline
  T/C: 153 % of control

## CC(=O)N(c1ccccc1)c1nc(CCl)cs1
endpoint: mean survival time, dose: 100.0 mg/kg/injection, schedule: Q01DX001 (ip), vehicle: carboxymethylcellulose (CMC)
  T/C: 100 % of control
endpoint: mean survival time, dose: 100.0 mg/kg/injection, schedule: Q01DX009 (ip), vehicle: carboxymethylcellulose (CMC)
  T/C: 88 % of control
endpoint: mean survival time, dose: 100.0 mg/kg/injection, schedule: Q04DX002 (ip), vehicle: carboxymethylcellulose (CMC)
  T/C: 97 % of control and 100 % of control
endpoint: mean survival time, dose: 100.0 mg/kg/injection, schedule: Q04DX003 (ip), vehicle: carboxymethylcellulose (CMC)
  T/C: 100 % of control
endpoint: mean survival time, dose: 200.0 mg/kg/injection, schedule: Q01DX001 (ip), vehicle: carboxymethylcellulose (CMC)
  T/C: 108 % of control
endpoint: mean survival time, dose: 200.0 mg/kg/injection, schedule: Q01DX009 (ip), vehicle: carboxymethylcellulose (CMC)
  T/C: 98 % of control and 89 % of control
endpoint: mean survival time, dose: 200.0 mg/kg/injection, schedule: Q04DX002 (ip), vehicle: carboxymethylcellulose (CMC)
  T/C: 95 % of control and 103 % of control
endpoint: mean survival time, dose: 200.0 mg/kg/injection, schedule: Q04DX003 (ip), vehicle: carboxymethylcellulose (CMC)
  T/C: 102 % of control
endpoint: mean survival time, dose: 400.0 mg/kg/injection, schedule: Q01DX001 (ip), vehicle: carboxymethylcellulose (CMC)
  T/C: 93 % of control
endpoint: mean survival time, dose: 400.0 mg/kg/injection, schedule: Q01DX009 (ip), vehicle: carboxymethylcellulose (CMC)
  T/C: 98 % of control and 103 % of control
endpoint: mean survival time, dose: 400.0 mg/kg/injection, schedule: Q04DX002 (ip), vehicle: carboxymethylcellulose (CMC)
  T/C: 100 % of control and 102 % of control
endpoint: mean survival time, dose: 400.0 mg/kg/injection, schedule: Q04DX003 (ip), vehicle: carboxymethylcellulose (CMC)
  T/C: 104 % of control

## O=C1CCN/C(=N\[N+](=O)[O-])N1
endpoint: mean survival time, dose: 100.0 mg/kg/injection, schedule: Q01DX001 (ip), vehicle: saline with Tween-80
  T/C: 101 % of control
endpoint: mean survival time, dose: 200.0 mg/kg/injection, schedule: Q01DX001 (ip), vehicle: saline with Tween-80
  T/C: 106 % of control
